Reference: ChEMBL document CHEMBL3885861, “Open TG-GATES”

Organism: Rattus norvegicus
Experiment: Open TG-GATES - Regimen: Daily Repeat
Format: toxicity, organism-based, Sprague-Dawley
Design: regimen Daily Repeat, gender Male, age 6 weeks
Conditions: in vivo, po, 100 mg/kg, route gavage, dose level Low; for APTT / Bas / Eos / Fbg / Hb / Ht / Lym / MCH / MCHC / MCV / Mono / Neu / PT / Plat / RBC / Ret / WBC: tissue Blood; for KIDNEY_L / KIDNEY_R / KIDNEY_TOTAL: tissue Kidney; for LIVER: tissue Liver; for A/G / ALP / ALT / AST / BUN / CRE / Ca / Cl / DBIL / GLC / IP / K / LDH / Na / PL / RALB / TBIL / TC / TG / TP / gamma-GTP: tissue Plasma

## CC[C@@H](CO)NCCN[C@@H](CC)CO [ETHAMBUTOL]
72 h, time 3 day
  TERMINAL_BW: 243.1 g
  APTT: 21.1 s
  Bas: 0%
  Eos: 1%
  Fbg: 341.6 mg/dL
  Hb: 13.4 g/dL
  Ht: 38.6%
  Lym: 80.4%
  MCH: 21.4 pg
  MCHC: 34.9%
  MCV: 61.5 fL
  Mono: 3%
  Neu: 14.2%
  PT: 15.8 s
  Plat: 123.9 x10_4/uL
  RBC: 627.8 x10_4/ul
  Ret: 6.4%
  WBC: 92.5 x10_2/uL
  KIDNEY_L: 1.1 g
  KIDNEY_R: 1 g
  KIDNEY_TOTAL: 2.1 g
  LIVER: 12 g
  A/G: 1.2
  ALP: 1628.8 IU/L
  ALT: 45.2 IU/L
  AST: 72.4 IU/L
  BUN: 17.4 mg/dL
  CRE: 0.2 mg/dL
  Ca: 10.8 mg/dL
  Cl: 107 meq/L
  DBIL: 0 mg/dL
  GLC: 187 mg/dL
  IP: 7.2 mg/dL
  K: 4.1 meq/L
  LDH: 158.4 IU/L
  Na: 140.8 meq/L
  PL: 156.4 mg/dL
  RALB: 3.1 g/dL
  TBIL: 0.016 mg/dL
  TC: 82.2 mg/dL
  TG: 117.8 mg/dL
  TP: 5.6 g/dL
  gamma-GTP: 1.6 IU/L
[…], time 7 day
  TERMINAL_BW: 272 g
  APTT: 22.4 s
  Bas: 0%
  Eos: 0.8%
  Fbg: 340.4 mg/dL
  Hb: 13.9 g/dL
  Ht: 40.1%
  Lym: 80.6%
  MCH: 21.4 pg
  MCHC: 34.6%
  MCV: 62 fL
  Mono: 2.6%
  Neu: 14.8%
  PT: 15.8 s
  Plat: 125.3 x10_4/uL
  RBC: 646.8 x10_4/ul
  Ret: 5.9%
  WBC: 109.9 x10_2/uL
  KIDNEY_L: 1.1 g
  KIDNEY_R: 1.1 g
  KIDNEY_TOTAL: 2.3 g
  LIVER: 13.7 g
  A/G: 1.1
  ALP: 1577.2 IU/L
  ALT: 42.2 IU/L
  AST: 67.2 IU/L
  BUN: 18.2 mg/dL
  CRE: 0.2 mg/dL
  Ca: 10.4 mg/dL
  Cl: 106.6 meq/L
  DBIL: 0 mg/dL
  GLC: 185.4 mg/dL
  IP: 7.6 mg/dL
  K: 4 meq/L
  LDH: 154.6 IU/L
  Na: 141.8 meq/L
  PL: 147.6 mg/dL
  RALB: 3 g/dL
  TBIL: 0.01 mg/dL
  TC: 74.8 mg/dL
  TG: 113.6 mg/dL
  TP: 5.8 g/dL
  gamma-GTP: 2.4 IU/L
[…], time 14 day
  TERMINAL_BW: 312.5 g
  APTT: 22.7 s
  Bas: 0%
  Eos: 1.2%
  Fbg: 318.2 mg/dL
  Hb: 14 g/dL
  Ht: 40.9%
  Lym: 80%
  MCH: 20.5 pg
  MCHC: 34.2%
  MCV: 60 fL
  Mono: 2.6%
  Neu: 15%
  PT: 16.9 s
  Plat: 110.4 x10_4/uL
  RBC: 681.8 x10_4/ul
  Ret: 4.5%
  WBC: 127.4 x10_2/uL
  KIDNEY_L: 1.3 g
  KIDNEY_R: 1.3 g
  KIDNEY_TOTAL: 2.6 g
  LIVER: 14.2 g
  A/G: 1.2
  ALP: 1502.6 IU/L
  ALT: 47.4 IU/L
  AST: 75.2 IU/L
  BUN: 19.6 mg/dL
  CRE: 0.2 mg/dL
  Ca: 10.3 mg/dL
  Cl: 106.4 meq/L
  DBIL: 0 mg/dL
  GLC: 195.4 mg/dL
  IP: 6.8 mg/dL
  K: 4.1 meq/L
  LDH: 144.6 IU/L
  Na: 141 meq/L
  PL: 132.8 mg/dL
  RALB: 3 g/dL
  TBIL: 0.014 mg/dL
  TC: 67 mg/dL
  TG: 81 mg/dL
  TP: 5.5 g/dL
  gamma-GTP: 2 IU/L
[…], time 28 day
  TERMINAL_BW: 351.2 g
  APTT: 23.2 s
  Bas: 0%
  Eos: 1%
  Fbg: 288.8 mg/dL
  Hb: 14.5 g/dL
  Ht: 41.9%
  Lym: 81.2%
  MCH: 18.3 pg
  MCHC: 34.7%
  MCV: 52.9 fL
  Mono: 2%
  Neu: 14%
  PT: 16.6 s
  Plat: 94.5 x10_4/uL
  RBC: 792.8 x10_4/ul
  Ret: 2.6%
  WBC: 137.8 x10_2/uL
  KIDNEY_L: 1.3 g
  KIDNEY_R: 1.4 g
  KIDNEY_TOTAL: 2.7 g
  LIVER: 15.1 g
  A/G: 1.1
  ALP: 1233.8 IU/L
  ALT: 47.4 IU/L
  AST: 77 IU/L
  BUN: 20.8 mg/dL
  CRE: 0.2 mg/dL
  Ca: 9.8 mg/dL
  Cl: 106.4 meq/L
  DBIL: 0 mg/dL
  GLC: 195.6 mg/dL
  IP: 6 mg/dL
  K: 3.9 meq/L
  LDH: 143.6 IU/L
  Na: 141.8 meq/L
  PL: 133 mg/dL
  RALB: 2.9 g/dL
  TBIL: 0.026 mg/dL
  TC: 76.8 mg/dL
  TG: 62.4 mg/dL
  TP: 5.7 g/dL
  gamma-GTP: 1.8 IU/L
